Measured values as given in patent US6479505B1, “6-arylphenanthridines with PDE-IV inhibiting activity” (Altana Pharma AG, priority 1999, dated 2002).

system: PDE4; assay: Inhibition of PDE4 activity (method of Bauer and Schwabe, microtiter plates); format: biochemical; details: inhibitory concentration as −log IC50 (mol/l)
Method: The activity test was carried out according to the method of Bauer and Schwabe, which was adapted to microtiter plates (Naunyn-Schmiedeberg's Arch. Pharmacol. 1980, 311, 193-198). The PDE reaction takes place in the first step here. In a second step, the resulting 5′-nucleotide is cleaved by a 5′-nucloetidase of the snake venom of Crotalus atrox to the uncharged nucleoside. In the third step, the nucleoside is separated from the remaining charged substrate on ion-exchange columns. The columns are eluted directly into minivials, into which 2 ml of scintillator fluid are additionally added, for counting using 2 ml of 30 mM ammonium formate (pH 6.0).
The inhibitory values determined for the compounds according to the invention [inhibitory concentration as −log IC50 (mol/l/)] follow from the following Table A, in which the numbers of the compounds correspond to the numbers of the examples.

SMILES | −log IC50
COc1cc2c(cc1OC)[C@@H]1CCCC[C@@H]1N=C2c1ccc2c(c1)OCO2 [Compound 1, (−)-cis-6-Benzo[1,3]dioxol-5-yl-8,9-dimethoxy-1,2,3,4,4a,10b-hexahydrophenanthridine] | 7.28
COc1cc2c(cc1OC)[C@@H]1CCCC[C@@H]1N=C2c1ccc2ncccc2c1 [Compound 2, (−)-cis-8,9-Dimethoxy-6-quinolin-6-yl-1,2,3,4,4a,10b-hexahydrophenanthridine] | 7.23
COc1cc2c(cc1OC)[C@@H]1CCCC[C@@H]1N=C2c1ccc2c(c1)OCCO2 [Compound 3, (−)-cis-8,9-Dimethoxy-6-(2,3-dihydrobenzo[1,4]dioxin-6-yl)-1,2,3,4,4a,10b-hexahydrophenanthridine] | 7.21
COc1cc2c(cc1OC)[C@@H]1CCCC[C@@H]1N=C2c1ccc2[nH]nnc2c1 [Compound 4, (−)-cis-6-(1H-Benzotriazol-5-yl)-8,9-dimethoxy-1,2,3,4,4a,10b-hexahydrophenanthridine] | 7.47
COc1cc2c(cc1OC)[C@@H]1CCCC[C@@H]1N=C2c1ccc2ccccc2c1 [Compound 5, (−)-cis-8,9-Dimethoxy-6-naphthalen-2-yl-1,2,3,4,4a,10b-hexahydrophenanthridine] | 7.63
COc1cc2c(cc1OC)[C@@H]1CCCC[C@@H]1N=C2c1ccc2c(c1)S(=O)(=O)c1ccccc1C2=O [Compound 6, (−)-cis-8,9-Dimethoxy-6-(10,10-dioxothioxanthen-9-on-3-yl)-1,2,3,4,4a,10b-hexahydro-phenanthridine] | 8.39
COc1cc2c(cc1OC)[C@@H]1CCCC[C@@H]1N=C2c1ccc2c(c1)C(=O)c1ccccc1-2.Cl [Compound 7, (+)-cis-8,9-Dimethoxy-6-(fluoren-9-on-2-yl)-1,2,3,4,4a,10b-hexahydrophenanthridine hydrochloride] | 7.85
COc1cc2c(cc1OC)[C@@H]1CCCC[C@@H]1N=C2c1ccc2c(c1)C(=O)c1ccccc1C2=O [Compound 8, (−)-cis-8,9-Dimethoxy-6-(anthraquinon-2-yl)-1,2,3,4,4a,10b-hexahydrophenanthridine] | 8.00
COc1cc2c(cc1OC)[C@@H]1CCCC[C@@H]1N=C2c1ccc2[nH]cnc2c1 [Compound 9, (−)-cis-6-(1H-Benzimidazol-5-yl)-8,9-dimethoxy-1,2,3,4,4a,10b-hexahydrophenanthridine] | 6.76
COc1cc2c(cc1OC)[C@@H]1CCCC[C@@H]1N=C2c1ccc2nc(C)[nH]c2c1 [Compound 10, (−)-cis-8,9-Dimethoxy-6-(2-methyl-3H-benzimidazol-5-yl)-1,2,3,4,4a,10b-hexahydrophenanthridine] | 6.83
COc1cc2c(cc1OC)[C@@H]1CCCC[C@@H]1N=C2c1ccc(OC(F)F)c2oc(C(C)C)cc12 [Compound 11, (−)-cis-6-[7-Difluoromethoxy-2-isopropylbenzofuran-4-yl]-8,9-dimethoxy-1,2,3,4,4a,10b-hexahydrophenanthridine] | 8.00

system: not given; assay: not given; details: not given

SMILES | melting point [°C]
COc1cc2c(cc1OC)[C@@H]1CCCC[C@@H]1N=C2c1ccc2[nH]nnc2c1 [Compound 4, (−)-cis-6-(1H-Benzotriazol-5-yl)-8,9-dimethoxy-1,2,3,4,4a,10b-hexahydrophenanthridine] | 213 to 214
COc1cc2c(cc1OC)[C@@H]1CCCC[C@@H]1N=C2c1ccc2c(c1)C(=O)c1ccccc1C2=O [Compound 8, (−)-cis-8,9-Dimethoxy-6-(anthraquinon-2-yl)-1,2,3,4,4a,10b-hexahydrophenanthridine] | 213 to 214.5
